Assays:
HIV-1DRV^RP20 = assay: Antiviral activity against DRV-resistant variant, passage 20; format: cell-based; details: Human immunodeficiency virus 1, read-out: EC50 against HIV-1DRV^RP20
[1] = test system: multi-drug-resistant clinical HIV-1 variants; assay: p24 assay in PHA-PBMs, the six multi-drug-resistant clinical variants taken together; format: cell-based; details: Human immunodeficiency virus 1, read-out: EC50 values against clinical multi-drug-resistant variants
Protocol: The susceptibility of HIV-1LAI to various drugs was determined as previously described with minor modifications. Briefly, MT-2 cells (10^4/ml) were exposed to 100 50% tissue culture infectious doses (TCID50) of HIV-1LAI in the presence or absence of various concentrations of drugs in 96-well microculture plates and were incubated at 37° C. for 7 days. After 100 μl of the medium was removed from each well, 3-(4,5-dimetylthiazol-2-yl)-2,5-diphenyltetrazolium bromide (MTT) solution (10 μl, 7.5 mg/ml in phosphate-buffered saline) was added to each well in the plate, followed by incubation at 37° C. for 2 h. […] All assays were performed in duplicate or triplicate. […] To determine the sensitivity of primary HIV-1 isolates to drugs, phytohemagglutinin-stimulated peripheral blood mononuclear cells (PHA-PBMC) (10^6/ml) were exposed to 50 TCID50 of each primary HIV-1 isolate and cultured in the presence or absence of various concentrations of drugs in 10-fold serial dilutions in 96-well microculture plates. In determining the drug susceptibility of certain laboratory HIV-1 strains, MT-4 cells were employed as target cells as previously described with minor modifications. […] On day 7 of culture, the supernatants were harvested and the amounts of p24 Gag protein were determined by using a fully automated chemiluminescent enzyme immunoassay system (Lumipulse F: Fujirebio Inc., Tokyo). […]

[2] = test system: variants selected with DRV over 10 and 20 passages; assay: Antiviral activity against DRV-resistant variants selected over 10 and 20 passages; format: cell-based, HIV-1; details: Human immunodeficiency virus 1, read-out: EC50 against variants selected with DRV over 10 and 20 passages
HIV-1NL4-3 = assay: In vitro selection of PI-resistant HIV-1 variants in MT-4 cells with sequencing of the protease-encoding region; format: cell-based
Excerpt: MT-4 cells ([…]) were exposed to HIV-1NL4-3 (500 TCID50) and cultured in the presence of various PIs at an initial concentration of its EC50 value. Viral replication was monitored by the determination of the amount of p24 Gag produced by MT-4 cells. The culture supernatants were harvested on day 7 and used to infect fresh MT-4 cells for the next round of culture in the presence of increasing concentrations of each drug. When the virus began to propagate in the presence of the drug, the drug concentration was increased generally 2- to 3-fold. Proviral DNA samples obtained from the lysates of infected cells were subjected to nucleotide sequencing. This drug selection procedure was carried out until the drug concentration reached 5 μM (31-33). In the experiments for selecting drug-resistant variants, MT-4 cells were exploited as target cells since HIV-1 in general replicates at greater levels in MT-4 cells than in MT-2 cells.
Molecular cloning and determination of the nucleotide sequences of HIV-1 strains passaged in the presence of anti-HIV-1 agents were performed as described previously (31). In brief, high molecular-weight DNA was extracted from HIV-1-infected MT-4 cells by using the InstaGene Matrix (Bio-Rad Laboratories, Hercules, Calif.) and was subjected to molecular cloning, followed by sequence determination. The primers used for the first round of PCR with the entire Gag- and protease-encoding regions of the HIV-1 genome were LTR F1 (5′-GATGCTACATATAAGCAGCTGC-3′; SEQ ID NO: 13) and PR12 (5′-CTCGTGACAAATTTCTACTAATGC-3′; SEQ ID NO: 14). The first-round PCR mixture consisted of 1 μl of proviral DNA solution, 10 μl of Premix Taq (Ex Taq Version; Takara Bio Inc., Otsu, Japan), and 10 pmol of each of the first PCR primers in a total volume of 20 μl. The PCR conditions used were an initial 3 min at 95° C., followed by 35 cycles of 40 sec at 95° C., 20 sec at 55° C., and 2 min at 72° C., with a final 10 min of extension at 72° C. The first-round PCR products (1 μl) were used directly in the second round of PCR with primers LTR F2 (5′-GAGACTCTGGTAACTAGAGATC-3′; SEQ ID NO: 15) and Ksma2.1 (5′-CCATCCCGGGCTTTAATTTTACTGGTAC-3′; SEQ ID NO: 16) under the PCR conditions of an initial 3 min at 95° C., followed by 35 cycles of 30 sec at 95° C., 20 sec at 55° C., and 2 min at 72° C., with a final 10 min of extension at 72° C. The second-round PCR products were purified with spin columns (MicroSpin S-400 HR columns; Amersham Biosciences Corp., Piscataway, N.J.), cloned directly, and subjected to sequencing with a model 3130 automated DNA sequencer (Applied Biosystems, Foster City, Calif.).

MT-2 cells = assay: Cytotoxicity (CC50), MTT assay; format: cell-based; details: human, 7 days
Protocol: The susceptibility of HIV-1LAI to various drugs was determined as previously described with minor modifications. Briefly, MT-2 cells (10^4/ml) were exposed to 100 50% tissue culture infectious doses (TCID50) of HIV-1LAI in the presence or absence of various concentrations of drugs in 96-well microculture plates and were incubated at 37° C. for 7 days. After 100 μl of the medium was removed from each well, 3-(4,5-dimetylthiazol-2-yl)-2,5-diphenyltetrazolium bromide (MTT) solution (10 μl, 7.5 mg/ml in phosphate-buffered saline) was added to each well in the plate, followed by incubation at 37° C. for 2 h. […] All assays were performed in duplicate or triplicate. […] In determining the drug susceptibility of certain laboratory HIV-1 strains, MT-4 cells were employed as target cells as previously described with minor modifications. In brief, MT-4 cells (10^5/ml) were exposed to 100 TCID50 of drug-resistant HIV-1 strains in the presence or absence of various concentrations of drugs and were incubated at 37° C. On day 7 of culture, the supernatants were harvested and the amounts of p24 Gag protein were determined by using a fully automated chemiluminescent enzyme immunoassay system (Lumipulse F: Fujirebio Inc., Tokyo). […] All assays were performed in duplicate or triplicate. PHA-PBMs were derived from a single donor in each independent experiment. Thus, for obtaining the data, three different donors were recruited.

CC(C)CN(C[C@@H](O)[C@H](Cc1ccccc1)NC(=O)O[C@H]1CO[C@H]2OCC[C@H]21)S(=O)(=O)c1ccc(N)cc1 [DRV, darunavir]
EC50 (HIV-1DRV^RP20): 0.174 µM

COc1ccc(S(=O)(=O)N(CC(C)C)C[C@@H](O)[C@H](Cc2ccccc2)NC(=O)OC2CO[C@H]3OCC(F)(F)[C@@H]23)cc1 (stereo partly shown) [GRL-04810]
EC50 [1]: 0.002 to 0.021 µM | EC50 [2]: 0.03 to 0.034 µM | concentration in the presence of which HIV-1NL4-3 had acquired an ability to replicate (HIV-1NL4-3; 25 passages, initial concentration 0.003 μM, MT-4 cells): 0.080 µM | fold-increased concentration tolerated by selected virus (HIV-1NL4-3; 25 passages, relative to initial concentration 0.003 μM): 26 fold

CC(C)CN(C[C@@H](O)[C@H](Cc1ccccc1)NC(=O)O[C@H]1CO[C@H]2OCC(F)(F)[C@H]21)S(=O)(=O)c1ccc(N)cc1 [GRL-05010]
CC50 (MT-2 cells): 37 µM | EC50 [1]: 0.002 to 0.021 µM | EC50 [2]: 0.026 to 0.043 µM | amino acid substitutions in the protease-encoding region of selected HIV-1NL4-3 (HIV-1NL4-3; by passage 15): M46I and I50V by passage 15 in all 24 clones examined, while N38K was detected in 8 of 24 clones and M36I in 3 clones | concentration in the presence of which HIV-1NL4-3 attained an ability to replicate (HIV-1NL4-3; by passage 15, starting at 0.003 μM, MT-4 cells): 0.037 µM

— US9346820B2, “HIV-1 protease inhibitors having gem-di-fluoro bicyclic P2-ligands” (priority 2013, dated 2016)
